Test results from publication PMC11576293, “New series of 4,6-diaryl pyrimidines: facile synthesis and antiproliferative activity as dual EGFR/VEGFR-2 inhibitors” (Frontiers in Chemistry, 2024).

Test system: not given
Test: not given
Settings: not given

SMILES	melting point [°C]
COc1ccc(-c2cc(-c3ccc(Cl)cc3)nc(SC)n2)cc1OC [Compound 23, 4-(4-Chlorophenyl)-6-(3,4-dimethoxyphenyl)-2-(methylthio)pyrimidine]	228 to 229
CCSc1nc(-c2ccc(Cl)cc2)cc(-c2ccc(OC)c(OC)c2)n1 [Compound 24, 4-(4-Chlorophenyl)-2-(ethylthio)-6-(3,4-dimethoxyphenyl)pyrimidine]	229 to 231
CCCSc1nc(-c2ccc(Cl)cc2)cc(-c2ccc(OC)c(OC)c2)n1 [Compound 25, 4-(4-Chlorophenyl)-6-(3,4-dimethoxyphenyl)-2-(propylthio)pyrimidine]	217 to 219

Test system: HT-29
Test: Antiproliferative assay (MTT)
Assay type: cell-based
Settings: Homo sapiens, HT-29 (colon), read-out: Antiproliferative activity IC50 ± SEM, HT-29
Summary of the method: (§1)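 MTT assay on tumour cell lines, compound in 0.1% DMSO final, 96 h at 37 °C. MTT at 0.4 mg/mL for 3 h, then DMSO solubilisation and absorbance at 540 nm. IC50 from dose-response, at least two independent runs in triplicate.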

SMILES	IC50 [nM]
COc1ccc(-c2cc(-c3ccc(Cl)cc3)nc(SC)n2)cc1OC [Compound 23, 4-(4-Chlorophenyl)-6-(3,4-dimethoxyphenyl)-2-(methylthio)pyrimidine]	48 ± 4
CCSc1nc(-c2ccc(Cl)cc2)cc(-c2ccc(OC)c(OC)c2)n1 [Compound 24, 4-(4-Chlorophenyl)-2-(ethylthio)-6-(3,4-dimethoxyphenyl)pyrimidine]	31 ± 3
CCCSc1nc(-c2ccc(Cl)cc2)cc(-c2ccc(OC)c(OC)c2)n1 [Compound 25, 4-(4-Chlorophenyl)-6-(3,4-dimethoxyphenyl)-2-(propylthio)pyrimidine]	32 ± 3

Test system: MCF-7
Test: Antiproliferative assay (MTT)
Assay type: cell-based
Settings: Homo sapiens, MCF7, MCF-7 (breast), read-out: Antiproliferative activity IC50 ± SEM, MCF-7
Summary of the method: as §1

SMILES	IC50 [nM]
COc1ccc(-c2cc(-c3ccc(Cl)cc3)nc(SC)n2)cc1OC [Compound 23, 4-(4-Chlorophenyl)-6-(3,4-dimethoxyphenyl)-2-(methylthio)pyrimidine]	50 ± 4
CCSc1nc(-c2ccc(Cl)cc2)cc(-c2ccc(OC)c(OC)c2)n1 [Compound 24, 4-(4-Chlorophenyl)-2-(ethylthio)-6-(3,4-dimethoxyphenyl)pyrimidine]	33 ± 3
CCCSc1nc(-c2ccc(Cl)cc2)cc(-c2ccc(OC)c(OC)c2)n1 [Compound 25, 4-(4-Chlorophenyl)-6-(3,4-dimethoxyphenyl)-2-(propylthio)pyrimidine]	34 ± 3

Test system: Panc-1
Test: Antiproliferative assay (MTT)
Assay type: cell-based
Settings: Homo sapiens, Panc-1 (pancreatic), read-out: Antiproliferative activity IC50 ± SEM, Panc-1
Summary of the method: as §1

SMILES	IC50 [nM]
COc1ccc(-c2cc(-c3ccc(Cl)cc3)nc(SC)n2)cc1OC [Compound 23, 4-(4-Chlorophenyl)-6-(3,4-dimethoxyphenyl)-2-(methylthio)pyrimidine]	47 ± 4
CCSc1nc(-c2ccc(Cl)cc2)cc(-c2ccc(OC)c(OC)c2)n1 [Compound 24, 4-(4-Chlorophenyl)-2-(ethylthio)-6-(3,4-dimethoxyphenyl)pyrimidine]	30 ± 3
CCCSc1nc(-c2ccc(Cl)cc2)cc(-c2ccc(OC)c(OC)c2)n1 [Compound 25, 4-(4-Chlorophenyl)-6-(3,4-dimethoxyphenyl)-2-(propylthio)pyrimidine]	32 ± 3

Test system: A-549
Test: Antiproliferative assay (MTT)
Assay type: cell-based
Settings: Homo sapiens, A549, A-549 (lung), read-out: Antiproliferative activity IC50 ± SEM, A-549
Summary of the method: as §1

SMILES	IC50 [nM]
COc1ccc(-c2cc(-c3ccc(Cl)cc3)nc(SC)n2)cc1OC [Compound 23, 4-(4-Chlorophenyl)-6-(3,4-dimethoxyphenyl)-2-(methylthio)pyrimidine]	48 ± 4
CCSc1nc(-c2ccc(Cl)cc2)cc(-c2ccc(OC)c(OC)c2)n1 [Compound 24, 4-(4-Chlorophenyl)-2-(ethylthio)-6-(3,4-dimethoxyphenyl)pyrimidine]	30 ± 3
CCCSc1nc(-c2ccc(Cl)cc2)cc(-c2ccc(OC)c(OC)c2)n1 [Compound 25, 4-(4-Chlorophenyl)-6-(3,4-dimethoxyphenyl)-2-(propylthio)pyrimidine]	32 ± 3

Test system: not listed separately
Test: Cell viability assay (MTT) on normal cells
Assay type: cell-based
Settings: human, MCF-10A normal mammary gland epithelial cells, 4 days incubation

SMILES	viability at 4 days, 50 µM [%]
COc1ccc(-c2cc(-c3ccc(Cl)cc3)nc(SC)n2)cc1OC [Compound 23, 4-(4-Chlorophenyl)-6-(3,4-dimethoxyphenyl)-2-(methylthio)pyrimidine]	90
CCSc1nc(-c2ccc(Cl)cc2)cc(-c2ccc(OC)c(OC)c2)n1 [Compound 24, 4-(4-Chlorophenyl)-2-(ethylthio)-6-(3,4-dimethoxyphenyl)pyrimidine]	91
CCCSc1nc(-c2ccc(Cl)cc2)cc(-c2ccc(OC)c(OC)c2)n1 [Compound 25, 4-(4-Chlorophenyl)-6-(3,4-dimethoxyphenyl)-2-(propylthio)pyrimidine]	91

Test system: MDA-MB-435
Test: NCI-60 single-dose screen
Assay type: cell-based
Settings: Homo sapiens, single dose 10 µM, '-' = no inhibition, read-out: % Growth Inhibition
Method: (§2) The National Cancer Institute’s Developmental Therapeutic Program (www.dtp.nci.nih.gov) has tested compounds 9–29 (except compounds 21 and 22) against 60 cancer cell lines from nine types (leukemia, lung, colon, CNS, melanoma, ovarian, renal, prostate, and breast cancer) at a single dose (10 μM) ([El-Sherief et al., 2018]). […] The most sensitive cells included leukemia (SR, K-562, and MOLT-4), lung (NCI-H522, […], and EKVX), breast (MCF-7 and T-47D), colon (HCT-15 and HT-29), and ovarian (NCI/ADR-RES).
(§3) The National Cancer Institute’s Developmental Therapeutic Program (www.dtp.nci.nih.gov) evaluated compounds 9–29 (excluding 21 and 22) against 60 cancer cell lines from nine categories (leukemia, lung, colon, CNS, melanoma, ovarian, renal, prostate, and breast cancer) at a single dose (10 μM) ([El-Sherief et al., 2018]). See Supplementary Material A1 for more details.

SMILES	inhibition at 10 µM [%]
COc1ccc(-c2cc(-c3ccc(Cl)cc3)nc(SC)n2)cc1OC [Compound 23, 4-(4-Chlorophenyl)-6-(3,4-dimethoxyphenyl)-2-(methylthio)pyrimidine]	18
CCSc1nc(-c2ccc(Cl)cc2)cc(-c2ccc(OC)c(OC)c2)n1 [Compound 24, 4-(4-Chlorophenyl)-2-(ethylthio)-6-(3,4-dimethoxyphenyl)pyrimidine]	19.7
CCCSc1nc(-c2ccc(Cl)cc2)cc(-c2ccc(OC)c(OC)c2)n1 [Compound 25, 4-(4-Chlorophenyl)-6-(3,4-dimethoxyphenyl)-2-(propylthio)pyrimidine]	0.34

Test system: HCT-116
Test: NCI-60 single-dose screen
Assay type: cell-based
Settings: Homo sapiens, single dose 10 µM, '-' = no inhibition, read-out: % Growth Inhibition
Method: as §2, §3

SMILES	inhibition at 10 µM [%]
COc1ccc(-c2cc(-c3ccc(Cl)cc3)nc(SC)n2)cc1OC [Compound 23, 4-(4-Chlorophenyl)-6-(3,4-dimethoxyphenyl)-2-(methylthio)pyrimidine]	33.7
CCSc1nc(-c2ccc(Cl)cc2)cc(-c2ccc(OC)c(OC)c2)n1 [Compound 24, 4-(4-Chlorophenyl)-2-(ethylthio)-6-(3,4-dimethoxyphenyl)pyrimidine]	30
CCCSc1nc(-c2ccc(Cl)cc2)cc(-c2ccc(OC)c(OC)c2)n1 [Compound 25, 4-(4-Chlorophenyl)-6-(3,4-dimethoxyphenyl)-2-(propylthio)pyrimidine]	< 0

Test system: SW-620
Test: NCI-60 single-dose screen
Assay type: cell-based
Settings: Homo sapiens, single dose 10 µM, '-' = no inhibition, read-out: % Growth Inhibition
Method: as §2, §3

SMILES	inhibition at 10 µM [%]
COc1ccc(-c2cc(-c3ccc(Cl)cc3)nc(SC)n2)cc1OC [Compound 23, 4-(4-Chlorophenyl)-6-(3,4-dimethoxyphenyl)-2-(methylthio)pyrimidine]	1.5
CCSc1nc(-c2ccc(Cl)cc2)cc(-c2ccc(OC)c(OC)c2)n1 [Compound 24, 4-(4-Chlorophenyl)-2-(ethylthio)-6-(3,4-dimethoxyphenyl)pyrimidine]	20.9
CCCSc1nc(-c2ccc(Cl)cc2)cc(-c2ccc(OC)c(OC)c2)n1 [Compound 25, 4-(4-Chlorophenyl)-6-(3,4-dimethoxyphenyl)-2-(propylthio)pyrimidine]	3.63

Test system: OVCAR-3
Test: NCI-60 single-dose screen
Assay type: cell-based
Settings: Homo sapiens, single dose 10 µM, '-' = no inhibition, read-out: % Growth Inhibition
Method: as §2, §3

SMILES	inhibition at 10 µM [%]
COc1ccc(-c2cc(-c3ccc(Cl)cc3)nc(SC)n2)cc1OC [Compound 23, 4-(4-Chlorophenyl)-6-(3,4-dimethoxyphenyl)-2-(methylthio)pyrimidine]	< 0
CCSc1nc(-c2ccc(Cl)cc2)cc(-c2ccc(OC)c(OC)c2)n1 [Compound 24, 4-(4-Chlorophenyl)-2-(ethylthio)-6-(3,4-dimethoxyphenyl)pyrimidine]	< 0
CCCSc1nc(-c2ccc(Cl)cc2)cc(-c2ccc(OC)c(OC)c2)n1 [Compound 25, 4-(4-Chlorophenyl)-6-(3,4-dimethoxyphenyl)-2-(propylthio)pyrimidine]	< 0

Test system: HOP-92
Test: NCI-60 single-dose screen
Assay type: cell-based
Settings: Homo sapiens, single dose 10 µM, '-' = no inhibition, read-out: % Growth Inhibition
Method: as §2, §3

SMILES	inhibition at 10 µM [%]
COc1ccc(-c2cc(-c3ccc(Cl)cc3)nc(SC)n2)cc1OC [Compound 23, 4-(4-Chlorophenyl)-6-(3,4-dimethoxyphenyl)-2-(methylthio)pyrimidine]	< 0
CCSc1nc(-c2ccc(Cl)cc2)cc(-c2ccc(OC)c(OC)c2)n1 [Compound 24, 4-(4-Chlorophenyl)-2-(ethylthio)-6-(3,4-dimethoxyphenyl)pyrimidine]	1.94
CCCSc1nc(-c2ccc(Cl)cc2)cc(-c2ccc(OC)c(OC)c2)n1 [Compound 25, 4-(4-Chlorophenyl)-6-(3,4-dimethoxyphenyl)-2-(propylthio)pyrimidine]	< 0

Test system: SN12C
Test: NCI-60 single-dose screen
Assay type: cell-based
Settings: Homo sapiens, single dose 10 µM, '-' = no inhibition, read-out: % Growth Inhibition
Method: as §2, §3

SMILES	inhibition at 10 µM [%]
COc1ccc(-c2cc(-c3ccc(Cl)cc3)nc(SC)n2)cc1OC [Compound 23, 4-(4-Chlorophenyl)-6-(3,4-dimethoxyphenyl)-2-(methylthio)pyrimidine]	20.2
CCSc1nc(-c2ccc(Cl)cc2)cc(-c2ccc(OC)c(OC)c2)n1 [Compound 24, 4-(4-Chlorophenyl)-2-(ethylthio)-6-(3,4-dimethoxyphenyl)pyrimidine]	22.8
CCCSc1nc(-c2ccc(Cl)cc2)cc(-c2ccc(OC)c(OC)c2)n1 [Compound 25, 4-(4-Chlorophenyl)-6-(3,4-dimethoxyphenyl)-2-(propylthio)pyrimidine]	< 0

Test system: DU-145
Test: NCI-60 single-dose screen
Assay type: cell-based
Settings: Homo sapiens, single dose 10 µM, '-' = no inhibition, read-out: % Growth Inhibition
Method: as §2, §3

SMILES	inhibition at 10 µM [%]
COc1ccc(-c2cc(-c3ccc(Cl)cc3)nc(SC)n2)cc1OC [Compound 23, 4-(4-Chlorophenyl)-6-(3,4-dimethoxyphenyl)-2-(methylthio)pyrimidine]	9.83
CCSc1nc(-c2ccc(Cl)cc2)cc(-c2ccc(OC)c(OC)c2)n1 [Compound 24, 4-(4-Chlorophenyl)-2-(ethylthio)-6-(3,4-dimethoxyphenyl)pyrimidine]	7.4
CCCSc1nc(-c2ccc(Cl)cc2)cc(-c2ccc(OC)c(OC)c2)n1 [Compound 25, 4-(4-Chlorophenyl)-6-(3,4-dimethoxyphenyl)-2-(propylthio)pyrimidine]	17.6

Test system: HS 578T
Test: NCI-60 single-dose screen
Assay type: cell-based
Settings: Homo sapiens, single dose 10 µM, '-' = no inhibition, read-out: % Growth Inhibition
Method: as §2, §3

SMILES	inhibition at 10 µM [%]
COc1ccc(-c2cc(-c3ccc(Cl)cc3)nc(SC)n2)cc1OC [Compound 23, 4-(4-Chlorophenyl)-6-(3,4-dimethoxyphenyl)-2-(methylthio)pyrimidine]	17
CCSc1nc(-c2ccc(Cl)cc2)cc(-c2ccc(OC)c(OC)c2)n1 [Compound 24, 4-(4-Chlorophenyl)-2-(ethylthio)-6-(3,4-dimethoxyphenyl)pyrimidine]	20.6
CCCSc1nc(-c2ccc(Cl)cc2)cc(-c2ccc(OC)c(OC)c2)n1 [Compound 25, 4-(4-Chlorophenyl)-6-(3,4-dimethoxyphenyl)-2-(propylthio)pyrimidine]	< 0

Test system: CAKI-1
Test: NCI-60 single-dose screen
Assay type: cell-based
Settings: Homo sapiens, single dose 10 µM, '-' = no inhibition, read-out: % Growth Inhibition
Method: as §2, §3

SMILES	inhibition at 10 µM [%]
COc1ccc(-c2cc(-c3ccc(Cl)cc3)nc(SC)n2)cc1OC [Compound 23, 4-(4-Chlorophenyl)-6-(3,4-dimethoxyphenyl)-2-(methylthio)pyrimidine]	24
CCSc1nc(-c2ccc(Cl)cc2)cc(-c2ccc(OC)c(OC)c2)n1 [Compound 24, 4-(4-Chlorophenyl)-2-(ethylthio)-6-(3,4-dimethoxyphenyl)pyrimidine]	27.5
CCCSc1nc(-c2ccc(Cl)cc2)cc(-c2ccc(OC)c(OC)c2)n1 [Compound 25, 4-(4-Chlorophenyl)-6-(3,4-dimethoxyphenyl)-2-(propylthio)pyrimidine]	13.5

Test system: SF-295
Test: NCI-60 single-dose screen
Assay type: cell-based
Settings: Homo sapiens, single dose 10 µM, '-' = no inhibition, read-out: % Growth Inhibition
Method: as §2, §3

SMILES	inhibition at 10 µM [%]
COc1ccc(-c2cc(-c3ccc(Cl)cc3)nc(SC)n2)cc1OC [Compound 23, 4-(4-Chlorophenyl)-6-(3,4-dimethoxyphenyl)-2-(methylthio)pyrimidine]	12.4
CCSc1nc(-c2ccc(Cl)cc2)cc(-c2ccc(OC)c(OC)c2)n1 [Compound 24, 4-(4-Chlorophenyl)-2-(ethylthio)-6-(3,4-dimethoxyphenyl)pyrimidine]	7.88
CCCSc1nc(-c2ccc(Cl)cc2)cc(-c2ccc(OC)c(OC)c2)n1 [Compound 25, 4-(4-Chlorophenyl)-6-(3,4-dimethoxyphenyl)-2-(propylthio)pyrimidine]	5.66
